Data reported in paper PMC4452589, “An evaluation of the brain distribution of [^11C]GSK1034702, a muscarinic-1 (M1) positive allosteric modulator in the living human brain using positron emission tomography” (EJNMMI Research, 2014).
Like-named read-outs stand apart in the source and are kept apart here.

How the values were obtained:
[1] = plasma protein binding by equilibrium dialysis, rat; type: in vitro ADME; conditions: equilibrium dialysis 5 h
Protocol: (§1) The in vitro brain and plasma protein binding of GSK1034702 across a range of species was determined using equilibrium dialysis as described previously.

P-glycoprotein (PGP) = tested on: P-glycoprotein (PGP); set-up: method as in GlaxoSmithKline (GSK) data on file; conditions: MDCK cell line expressing human MDR1; ratio printed as x:1; ref GlaxoSmithKline (GSK) data on file; cited from earlier work
[2] = [11C]GSK1034702 PET brain distribution and kinetics in anaesthetised baboons; type: in vivo, Papio anubis; conditions: for Kp: baboon (Papio anubis), intravenous
Protocol: The brain distribution of carbon-11-labelled GSK1034702 ([^11C]GSK1034702) was conducted in two anaesthetised baboons (P. anubis), to assess its transport across the BBB. These studies were conducted at Columbia University Medical Center, New York. The study was approved by the Columbia University Institutional Animal Care and Use Committee (IACUC).
Two adult baboons were studied over a 6-week period. Subject A (an ovariectomised female) received two injections of [^11C]GSK1034702 22 days apart, while subject B (male) received a single injection of [^11C]GSK1034702. Each experimental session included a single dynamic PET scan.
Fasted animals were immobilised with intramuscular ketamine injection (10 mg/kg), and anesthetised with 1.8% isoflurane via an endotracheal tube. Vital signs were monitored every 10 min and the temperature was kept constant at 37°C with heated water blankets. An intravenous (IV) perfusion line was used for hydration and injection of the radiotracer. A catheter was inserted in a femoral artery for arterial blood sampling. The head was positioned at the centre of the field of view. PET imaging was performed with the ECAT EXACT HR + PET scanner (Siemens/CTI, Knoxville, TN) operating in 3D mode (in-plane resolution of 4.3, 4.5, 5.4 and 8.0 mm, full width at half maximum (FWHM) at a distance of 0, 1, 10 and 20 cm from the centre of the field of view). A 15-min transmission scan was obtained prior to radiotracer injection for attenuation correction. […] Following IV administration (45-s bolus) of a single dose of [^11C]GSK1034702 dynamic PET, arterial blood and metabolite data were acquired for 120 min (subject A) for the first two scans and only 60 min for the third scan due to a technical issue (subject B).
Regions of interest (ROIs) were drawn on previously acquired T1-weighted anatomical magnetic resonance imaging (MRI) brain images for each animal. The following regions were defined: cerebellum, hippocampus, thalamus, striatum, frontal cortex and occipital cortex. Regions were drawn in the MEDx (Sensor Systems Inc., Sterling, VA, USA) software environment. PET emission data were attenuation-corrected using the transmission scan, and frames were reconstructed using a Shepp filter (cutoff 0.5 cycles/projection rays). Decay-corrected PET images were registered to the MRI images by maximisation of mutual information using SPM2 and Matlab software. Regional boundaries were transferred from the MRI to the individual registered PET frames, and time-activity curves were measured in the MEDx environment. Right and left regions were averaged. For a given animal, the same regions were used for all scans.
Brain time activity curves (TACs) were corrected for the contribution of blood activity assuming a 5% blood volume. A metabolite-corrected arterial input function and regional TACs were fitted to a compartmental model to derive regional VT estimates as well as a whole brain VT.

[3] = plasma free fraction by ultrafiltration, human arterial plasma; type: in vitro ADME
Protocol: Arterial blood radioactivity was measured continuously for the first 15 min after [^11C]GSK1034702 injection, using a continuous sampling system (ABSS Allogg, Mariefred, Sweden). In addition, 12 serial discrete blood samples were obtained (at 5, 10, 15, 20, 25, 30, 40, 50, 60, 70, 80 and 90 min post injection), to determine whole blood and plasma activity. Seven samples (at 5, 10, 20, 30, 50, 70 and 90 min) were further processed by HPLC to measure the fraction of plasma activity representing unmetabolised GSK1034702. For all human studies, the non-protein-bound fraction of [^11C]GSK1034702 in arterial plasma (fP) was assessed by ultrafiltration for the blood sample taken at the beginning of the scan.

[4] = set-up: method as in GlaxoSmithKline (GSK) data on file; conditions: marmoset; ratio printed as x:1; ref GlaxoSmithKline (GSK) data on file; cited from earlier work
[5] = brain tissue binding by equilibrium dialysis, mouse; type: in vitro ADME; conditions: equilibrium dialysis 5 h
Protocol: as §1

[6] = brain tissue binding by equilibrium dialysis, monkey; type: in vitro ADME; conditions: equilibrium dialysis 5 h
Protocol: as §1

[7] = set-up: method as in GlaxoSmithKline (GSK) data on file; conditions: rat; ref GlaxoSmithKline (GSK) data on file; cited from earlier work
[8] = brain tissue binding by equilibrium dialysis, rat; type: in vitro ADME; conditions: equilibrium dialysis 5 h; for Brain tissue binding: 1 μg/mL, mean ± SD, n = 6; for fraction unbound at 5 h, 1 μg/mL: brain tissue, read-out: f ND (brain-free fraction)
Protocol: as §1

[9] = set-up: method as in PMID 22932339; conditions: healthy smokers, nicotine abstinence model of cognitive dysfunction; cited from earlier work
human recombinant m1AChR = tested on: human recombinant m1AChR; set-up: method as in earlier work; conditions: cited from earlier work
[10] = both sexes, whole brain, Papio anubis, mean ± SD of three scans, two-tissue compartmental model, read-out: whole brain VT
[11] = brain tissue, read-out: f ND (brain-free fraction)

Cc1cc(F)c2[nH]c(=O)n(C3CCN(C4CCOCC4)CC3)c2c1 [GSK1034702]
fraction unbound at 5 h, 1 μg/mL ([1]; Rat (CD), read-out: f P (plasma-free fraction)): 0.53
fraction unbound at 5 h, 1 μg/mL ([1]; Rat (CD, Sprague Dawley), mean ± SD, n = 6, read-out: Plasma protein binding (converted)): 0.528
fraction unbound at 5 h, 1 μg/mL ([1]; Rat (LH), read-out: f P (plasma-free fraction)): 0.55
fraction unbound at 5 h, 1 μg/mL ([1]; Rat (LH, Lister hooded), mean ± SD, n = 6, read-out: Plasma protein binding (converted)): 0.545
efflux ratio (P-glycoprotein (PGP)): 2.6
Kp ([2]; both sexes, cortex, primate, as worded, read-out: VT measured in the primate cortex): 4
Kp [2, 10]: 3.97
f P Baseline ([3]; Average of four subjects): 0.45
f P Post-dose ([3]; Average, after 5 mg oral): 0.44
f P Baseline ([3]; Subject 1): 0.42
f P Baseline ([3]; Subject 2): 0.43
f P Post-dose ([3]; Subject 2, after 5 mg oral): 0.41
f P Baseline ([3]; Subject 3): 0.43
f P Post-dose ([3]; Subject 3, after 5 mg oral): 0.43
f P Baseline ([3]; Subject 4): 0.51
f P Post-dose ([3]; Subject 4, after 5 mg oral): 0.48
brain/blood ratio [4]: 2.0
fraction unbound at 5 h, 1 μg/mL [5, 11]: 0.13
Brain tissue binding ([5]; 1 μg/mL, mean ± SD, n = 6): 86.7 (±0.6) %
fraction unbound at 5 h, 1 μg/mL [6, 11]: 0.17
Brain tissue binding ([6]; 1 μg/mL, mean ± SD, n = 6): 83.2 (±1.1) %
brain/blood ratio [7]: 0.6
Brain tissue binding ([8]; Rat (CD)): 87.7 (±0.5) %
Brain tissue binding ([8]; Rat (LH)): 84.9 (±1.0) %
fraction unbound at 5 h, 1 μg/mL ([8]; Rat (CD)): 0.12
fraction unbound at 5 h, 1 μg/mL ([8]; Rat (LH)): 0.15
effect on episodic memory [9]: improved episodic memory
pEC50 (human recombinant m1AChR; allosteric agonist at human recombinant m1AChR): 8.1 ± 0.1
intrinsic activity (IA) (human recombinant m1AChR; human recombinant m1AChR): 0.78 ± 0.02

[11CH3]c1cc(F)c2[nH]c(=O)n(C3CCN(C4CCOCC4)CC3)c2c1 [[^11C]GSK1034702]
Regional K1 ([2]; Cerebellum, Subject A Exam 1, baboon): 0.46 mL.cm^-3.min^-1
Regional K1 ([2]; Cerebellum, Subject A Exam 2, baboon): 0.57 mL.cm^-3.min^-1
Regional K1 ([2]; Cerebellum, Subject B Exam 1, baboon): 0.35 mL.cm^-3.min^-1
Regional K1 ([2]; Frontal Ctx, Subject A Exam 1, baboon): 0.39 mL.cm^-3.min^-1
Regional K1 ([2]; Frontal Ctx, Subject A Exam 2, baboon): 0.53 mL.cm^-3.min^-1
Regional K1 ([2]; Frontal Ctx, Subject B Exam 1, baboon): 0.32 mL.cm^-3.min^-1
Regional K1 ([2]; Hippocampus, Subject A Exam 1, baboon): 0.39 mL.cm^-3.min^-1
Regional K1 ([2]; Hippocampus, Subject A Exam 2, baboon): 0.60 mL.cm^-3.min^-1
Regional K1 ([2]; Hippocampus, Subject B Exam 1, baboon): 0.32 mL.cm^-3.min^-1
Regional K1 ([2]; Occipital Ctx, Subject A Exam 1, baboon): 0.67 mL.cm^-3.min^-1
Regional K1 ([2]; Occipital Ctx, Subject A Exam 2, baboon): 0.53 mL.cm^-3.min^-1
Regional K1 ([2]; Occipital Ctx, Subject B Exam 1, baboon): 0.37 mL.cm^-3.min^-1
whole brain VT ([2]; Papio anubis, mean ± SD of three scans, two-tissue compartmental model): 3.97 ± 0.38 mL.cm^−3
Regional K1 ([2]; Striatum, Subject A Exam 1, baboon): 0.39 mL.cm^-3.min^-1
Regional K1 ([2]; Striatum, Subject A Exam 2, baboon): 0.51 mL.cm^-3.min^-1
Regional K1 ([2]; Striatum, Subject B Exam 1, baboon): 0.39 mL.cm^-3.min^-1
Regional K1 ([2]; Thalamus, Subject A Exam 1, baboon): 0.44 mL.cm^-3.min^-1
Regional K1 ([2]; Thalamus, Subject A Exam 2, baboon): 0.52 mL.cm^-3.min^-1
Regional K1 ([2]; Thalamus, Subject B Exam 1, baboon): 0.27 mL.cm^-3.min^-1
Regional K1 ([2]; Whole Brain, Subject A Exam 1, baboon): 0.45 mL.cm^-3.min^-1
Regional K1 ([2]; Whole Brain, Subject A Exam 2, baboon): 0.50 mL.cm^-3.min^-1
Regional K1 ([2]; Whole Brain, Subject B Exam 1, baboon): 0.35 mL.cm^-3.min^-1
Kp [2, 10]: 3.97
Kp ([2]; female, cerebellum, Cerebellum, Subject A Exam 1, baboon, read-out: Regional V T): 4.07
Kp ([2]; female, cerebellum, Cerebellum, Subject A Exam 2, baboon, read-out: Regional V T): 3.79
Kp ([2]; female, frontal cortex, Frontal Ctx, Subject A Exam 1, baboon, read-out: Regional V T): 3.92
Kp ([2]; female, frontal cortex, Frontal Ctx, Subject A Exam 2, baboon, read-out: Regional V T): 3.73
Kp ([2]; female, hippocampus, Hippocampus, Subject A Exam 1, baboon, read-out: Regional V T): 4.78
Kp ([2]; female, hippocampus, Hippocampus, Subject A Exam 2, baboon, read-out: Regional V T): 4.62
Kp ([2]; female, occipital cortex, Occipital Ctx, Subject A Exam 1, baboon, read-out: Regional V T): 4.49
Kp ([2]; female, occipital cortex, Occipital Ctx, Subject A Exam 2, baboon, read-out: Regional V T): 4.64
Kp ([2]; female, striatum, Striatum, Subject A Exam 1, baboon, read-out: Regional V T): 3.86
Kp ([2]; female, striatum, Striatum, Subject A Exam 2, baboon, read-out: Regional V T): 3.95
Kp ([2]; female, thalamus, Thalamus, Subject A Exam 1, baboon, read-out: Regional V T): 4.06
Kp ([2]; female, thalamus, Thalamus, Subject A Exam 2, baboon, read-out: Regional V T): 3.91
Kp ([2]; female, whole brain, Whole brain, Subject A Exam 1, baboon, read-out: Regional V T): 4.2
Kp ([2]; female, whole brain, Whole brain, Subject A Exam 2, baboon, read-out: Regional V T): 4.19
Kp ([2]; male, cerebellum, Cerebellum, Subject B Exam 1, baboon, read-out: Regional V T): 3.09
Kp ([2]; male, frontal cortex, Frontal Ctx, Subject B Exam 1, baboon, read-out: Regional V T): 3.52
Kp ([2]; male, hippocampus, Hippocampus, Subject B Exam 1, baboon, read-out: Regional V T): 3.52
Kp ([2]; male, occipital cortex, Occipital Ctx, Subject B Exam 1, baboon, read-out: Regional V T): 3.89
Kp ([2]; male, striatum, Striatum, Subject B Exam 1, baboon, read-out: Regional V T): 3.21
Kp ([2]; male, thalamus, Thalamus, Subject B Exam 1, baboon, read-out: Regional V T): 2.75
Kp ([2]; male, whole brain, Whole brain, Subject B Exam 1, baboon, read-out: Regional V T): 3.52
